System: N1E-115 cells
Assay: Neuritogenesis (neurite extension) in serum-starved N1E-115 cells
Assay type: cell-based, murine
Details: 48 h, PJ-34 10 μM, Paclitaxel 0.05 μM
Experimental: N1E-115 cells grown in serum-starved (SS) medium were evaluated to determine the extent of neurite formation after 48 h of treatment with RedBr-Nos (5 μM), Griseofulvin (10 μM), PJ-34 (10 μM), Paclitaxel (0.05 μM) treatment or untreated control cells (i.e., serum-starved medium (SS) alone). Panels Ai and Aii depict quantitative bar graphs representing the average length of neurites and percentage of population of cells showing neurite length >10 μm, respectively. A hundred cells were counted in each case. […] Panel B depicts an immunoblot showing CLASP1 expression levels in control (C) and CLASP1 siRNA-transfected N1E-115 cells.
Neuritogenesis is a process in nerve cells involving the extension of polarized, elongated neurites. N1E-115 cells usually extend only one major neurite per cell, which can vary in length from 5 to 500 μm. The growth cones of the neurites serve as primary focal points of motility. The effect of declustering agents on cell motility was evaluated by assessing the length and frequency of neurites formed in a serum-free medium on a laminin-coated surface.

## CN(C)CC(=O)Nc1ccc2[nH]c(=O)c3ccccc3c2c1 [PJ, PJ-34]
  inhibition of neurite extension: moderate inhibition

Reference: US10242153B2, “Method for determining the risk profile of neoplastic tissue” (NOVAZOI THERANOSTICS, priority 2014, dated 2019)
